Reference: patent US20240293558A1, “KRAS INHIBITOR CONJUGATES” (Erasca, Inc., priority 2021, published 2024)

Experiments:
KRAS G12D = KRAS G12D (Homo sapiens, UniProt P01116, G12D); experiment: In-vitro RAS-RAF binding assay (RRB), HTRF/FRET; type: biochemical; set-up: Biotinylated KRAS protein amino acids 1-169 (produced at Erasca); made in house; settings: Table 2, average of multiple runs of each compound; read-out: Inhibition of RAS-RAF Binding (in-vitro) KRAS (G12D) IC50
Method: (§1) Biotinylated KRAS protein amino acids 1-169 (produced at […]) is labeled with streptavidin-terbium (lanthanide cryptate donor fluorophore) in assay buffer (50 mM HEPES, pH 7.5, 100 mM NaCl, 1 mM MgCl2, 1 mM DTT) at a final concentration of 30 nM. In a separate reaction mixture, 30 nM cRAF (RBD) (Abcam, Cambridge MA) is labeled with anti-GST d2 (acceptor fluorophore). Labeling reactions are incubated for 1 hour at room temperature. […] Following the compound incubation, SOS1 catalytic domain (produced at […]) and GTPgS are added to the reaction to initiate nucleotide exchange (60 minutes exchange reaction). Once in the GTP state KRAS will bind to cRAF. No binding will occur if KRAS remains in the GDP state. Compounds may block nucleotide exchange or may create a steric obstruction to cRAF-KRAS interaction by binding to the RAS effector site. […] A portion of this mixture is transferred to a white 384-well plate (20 uL per well in duplicate) and read on an HTRF compatible plate reader (ClarioSTAR). Fluorescent resonance energy transfer (FRET) is measured at equilibrium. FRET signal will be high if KRAS-cRAF binding occurs. FRET signal will be low if KRAS-cRAF binding is inhibited by the test compound. Table 2 represents the average of multiple runs of each compound.

KRAS (WT) = target: T1, KRAS (WT) (Homo sapiens, UniProt P01116); experiment: In-vitro RAS-RAF binding assay (RRB), HTRF/FRET; type: biochemical; settings: Table 2, average of multiple runs of each compound; read-out: Inhibition of RAS-RAF Binding (in-vitro) KRAS (WT) IC50
T1 construct: Biotinylated KRAS protein amino acids 1-169 (produced at Erasca); made in house
T1 sequence (P01116 1-169 isoform P01116-2): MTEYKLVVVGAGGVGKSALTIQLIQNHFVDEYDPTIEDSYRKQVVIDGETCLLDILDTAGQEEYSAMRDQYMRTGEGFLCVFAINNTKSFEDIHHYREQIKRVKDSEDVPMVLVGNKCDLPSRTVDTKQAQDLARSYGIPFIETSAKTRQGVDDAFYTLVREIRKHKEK
Method: as §1

Chain of KRAS G12D (P01116 1-169 isoform P01116-2 G12D): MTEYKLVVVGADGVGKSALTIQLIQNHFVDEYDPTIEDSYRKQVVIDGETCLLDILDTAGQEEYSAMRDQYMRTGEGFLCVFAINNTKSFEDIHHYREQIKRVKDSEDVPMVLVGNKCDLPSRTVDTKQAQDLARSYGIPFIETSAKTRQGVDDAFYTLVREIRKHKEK

Row | SMILES | IC50 (KRAS G12D) [µM] | IC50 (KRAS (WT)) [µM]
1 | C#Cc1c(F)ccc2cc(O)cc(-c3ncc4c(N5CC6CCC(C5)N6)nc(OC[C@@H]5CCCN5CCCOCCC(=O)N[C@H](C(=O)N5C[C@H](O)C[C@H]5C(=O)N[C@@H](CO)c5ccc(-c6scnc6C)cc5)C(C)(C)C)nc4c3F)c12 [Example 29, (2S,4R)-1-((2S)-2-(3-(3-((2S)-2-(((4-(3,8-diazabicyclo[3.2.1]octan-3-yl)-7-(8-ethynyl-7-fluoro-3-hydroxynaphthalen-1-yl)-8-fluoropyrido[4,3-d]pyrimidin-2-yl)oxy)methyl)pyrrolidin-1-yl)propoxy)propanamido)-3,3-dimethylbutanoyl)-4-hydroxy-N—((R)-2-hydroxy-1-(4-(4-methylthiazol-5-yl)phenyl)ethyl)pyrrolidine-2-carboxamide] | 0.00931 | 0.0279
2 | C#Cc1c(F)ccc2cc(O)cc(-c3ncc4c(N5CC6CCC(C5)N6)nc(OC[C@@H]5CCCN5CCCOCCC(=O)N[C@H](C(=O)N5C[C@H](O)C[C@H]5C(=O)N[C@@H](C)c5ccc(-c6c(F)cccc6F)cn5)C(C)(C)C)nc4c3F)c12 [Example 30, (2S,4R)-1-((2S)-2-(3-(3-((2S)-2-(((4-(3,8-diazabicyclo[3.2.1]octan-3-yl)-7-(8-ethynyl-7-fluoro-3-hydroxynaphthalen-1-yl)-8-fluoropyrido[4,3-d]pyrimidin-2-yl)oxy)methyl)pyrrolidin-1-yl)propoxy)propanamido)-3,3-dimethylbutanoyl)-N—((S)-1-(5-(2,6-difluorophenyl)pyridin-2-yl)ethyl)-4-hydroxypyrrolidine-2-carboxamide] | 0.00759 | 0.0223
3 | C#Cc1c(F)ccc2cc(O)cc(-c3ncc4c(N5CC6CCC(C5)N6)nc(OC[C@@H]5CCCN5CCCOCCC(=O)N[C@H](C(=O)N5C[C@H](O)C[C@H]5C(=O)N[C@@H](C)c5ccc(-c6c(F)cccc6F)nc5)C(C)(C)C)nc4c3F)c12 [Example 31, (2S,4R)-1-((2S)-2-(3-(3-((2S)-2-(((4-(3,8-diazabicyclo[3.2.1]octan-3-yl)-7-(8-ethynyl-7-fluoro-3-hydroxynaphthalen-1-yl)-8-fluoropyrido[4,3-d]pyrimidin-2-yl)oxy)methyl)pyrrolidin-1-yl)propoxy)propanamido)-3,3-dimethylbutanoyl)-N—((S)-1-(6-(2,6-difluorophenyl)pyridin-3-yl)ethyl)-4-hydroxypyrrolidine-2-carboxamide] | 0.00838 | 0.0278
4 | C#Cc1c(F)ccc2cc(O)cc(-c3ncc4c(N5CC6CCC(C5)N6)nc(OC[C@@H]5CCCN5CCCOCCC(=O)N[C@H](C(=O)N5C[C@H](O)C[C@H]5C(=O)N[C@@H](CO)c5ccc(-c6c(F)cccc6F)cc5)C(C)(C)C)nc4c3F)c12 [Example 32, (2S,4R)-1-((2S)-2-(3-(3-((2S)-2-(((4-(3,8-diazabicyclo[3.2.1]octan-3-yl)-7-(8-ethynyl-7-fluoro-3-hydroxynaphthalen-1-yl)-8-fluoropyrido[4,3-d]pyrimidin-2-yl)oxy)methyl)pyrrolidin-1-yl)propoxy)propanamido)-3,3-dimethylbutanoyl)-N—((R)-1-(2′,6′-difluoro-[1,1′-biphenyl]-4-yl)-2-hydroxyethyl)-4-hydroxypyrrolidine-2-carboxamide] | 0.00823 | 0.0303
5 | C#Cc1c(F)ccc2cc(O)cc(-c3ncc4c(N5CC6CCC(C5)N6)nc(OC[C@@H]5CCCN5CCCOCCC(=O)N[C@H](C(=O)N5C[C@H](O)C[C@H]5C(=O)N[C@@H](C)c5ccc(N6CCC[C@H]6C#N)cc5)C(C)(C)C)nc4c3F)c12 [Example 33, (2S,4R)-1-((2S)-2-(3-(3-((2S)-2-(((4-(3,8-diazabicyclo[3.2.1]octan-3-yl)-7-(8-ethynyl-7-fluoro-3-hydroxynaphthalen-1-yl)-8-fluoropyrido[4,3-d]pyrimidin-2-yl)oxy)methyl)pyrrolidin-1-yl)propoxy)propanamido)-3,3-dimethylbutanoyl)-N—((S)-1-(4-((S)-2-cyanopyrrolidin-1-yl)phenyl)ethyl)-4-hydroxypyrrolidine-2-carboxamide] | 0.00748 | 0.00305
6 | C#Cc1c(F)ccc2cc(O)cc(-c3ncc4c(N5CC6CCC(C5)N6)nc(OC[C@@H]5CCCN5CCCOCCCC(=O)N[C@H](C(=O)N5C[C@H](O)C[C@H]5C(=O)N[C@@H](C)c5ccc(-c6c(F)cccc6F)cc5)C(C)(C)C)nc4c3F)c12 [Example 34, (2S,4R)-1-((2S)-2-(4-(3-((2S)-2-(((4-(3,8-diazabicyclo[3.2.1]octan-3-yl)-7-(8-ethynyl-7-fluoro-3-hydroxynaphthalen-1-yl)-8-fluoropyrido[4,3-d]pyrimidin-2-yl)oxy)methyl)pyrrolidin-1-yl)propoxy)butanamido)-3,3-dimethylbutanoyl)-N—((S)-1-(2′,6′-difluoro-[1,1′-biphenyl]-4-yl)ethyl)-4-hydroxypyrrolidine-2-carboxamide] | 0.00991 | 0.0634
7 | C#Cc1c(F)ccc2cc(O)cc(-c3ncc4c(N5CC6CCC(C5)N6)nc(OCCN5CCC6(CC5)CN(c5cc([C@H](C(=O)N7C[C@H](O)C[C@H]7C(=O)N[C@@H](C)c7ccc(-c8c(F)cc(F)cc8F)cc7)C(C)C)on5)C6)nc4c3F)c12 [Example 36, (2S,4R)-1-((2R)-2-(3-(7-(2-((4-(3,8-diazabicyclo[3.2.1]octan-3-yl)-7-(8-ethynyl-7-fluoro-3-hydroxynaphthalen-1-yl)-8-fluoropyrido[4,3-d]pyrimidin-2-yl)oxy)ethyl)-2,7-diazaspiro[3.5]nonan-2-yl)isoxazol-5-yl)-3-methylbutanoyl)-4-hydroxy-N—((S)-1-(2′,4′,6′-trifluoro-[1,1′-biphenyl]-4-yl)ethyl)pyrrolidine-2-carboxamide] | 0.00985 | 1.07
8 | C[C@H](NC(=O)[C@@H]1C[C@@H](O)CN1C(=O)[C@@H](NC(=O)CCOCCCN1CCC[C@H]1COc1nc(N2CC3CCC(C2)N3)c2cc(Cl)c(-c3ccc(F)c4sc(N)c(C#N)c34)c(F)c2n1)C(C)(C)C)c1ccc(-c2c(F)cc(F)cc2F)cc1 [Example 37, (2S,4R)-1-((2S)-2-(3-(3-((2S)-2-(((7-(2-amino-3-cyano-7-fluorobenzo[b]thiophen-4-yl)-4-(3,8-diazabicyclo[3.2.1]octan-3-yl)-6-chloro-8-fluoroquinazolin-2-yl)oxy)methyl)pyrrolidin-1-yl)propoxy)propanamido)-3,3-dimethylbutanoyl)-4-hydroxy-N—((S)-1-(2′,4′,6′-trifluoro-[1,1′-biphenyl]-4-yl)ethyl)pyrrolidine-2-carboxamide] | 0.0194 | 0.275
9 | C#Cc1c(F)ccc2cc(O)cc(-c3ncc4c(N5CC6CCC(C5)N6)nc(OC[C@@H]5CCCN5CCCOCCC(=O)N[C@H](C(=O)N5C[C@H](O)C[C@H]5C(=O)N[C@@H](C)c5ccc(-c6ccccc6C#N)cc5)C(C)(C)C)nc4c3F)c12 [Example 40, (2S,4R)-1-((2S)-2-(3-(3-((2S)-2-(((4-(3,8-diazabicyclo[3.2.1]octan-3-yl)-7-(8-ethynyl-7-fluoro-3-hydroxynaphthalen-1-yl)-8-fluoropyrido[4,3-d]pyrimidin-2-yl)oxy)methyl)pyrrolidin-1-yl)propoxy)propanamido)-3,3-dimethylbutanoyl)-N-((S)-1-(2′-cyano-[1,1′-biphenyl]-4-yl)ethyl)-4-hydroxypyrrolidine-2-carboxamide] | 0.00888 | 0.0265
